This note sets out measurements from patent US20110071124A1, “Compounds that Inhibit Production of sAPPB and AB and Uses Thereof” (The Trustees of Columbia University in the City of New York, priority 2008, published 2011).

Assay [1] relates to sAPPβ (BACE1 cleavage of SEAP-APPwt) in SY5Y-BACEGFP-SEAPAPPwt cells. Description: cell-based BACE1 assay (sAPPβ modified ELISA). The conditions noted are these: for IC50 / IC50(sAPPβ): SAR study, 8 concentrations (30-0.01 μM), SY5Y-BACEGFP-SEAPAPPwt cells; for IC50: read-out: IC50(sAPPβ). As for the experimental part:
FIG. 1. An sAPPβ assay utilized to identify inhibitors of BACE1. The assay utilizes SY5Y cells stably overexpressing BACE-GFP and SEAP-APPwt. Cells are incubated with a candidate compound for 6 hours prior to harvesting media. BACE1-mediated cleavage of APP results in the release of sAPPβ into the media. α-secretase, a competing enzyme that is non-amyloidogenic, also cleaves APP to release […]. Using an sAPPβ-specific antibody (sβwt), SEAP-sAPPβ is specifically captured in a modified ELISA assay. Detection is achieved by addition of the fluorescent alkaline phosphatase substrate, 4-methylumbelliferyl phosphate (4-MUP).
(§1) FIG. 13. […] Compounds were tested in SY5Y-BACEGFP-SEAPAPPwt cells using the cell-based BACE1 assay. Select compounds were also investigated for Aβ-lowering effect using a commercial Aβ ELISA kit (BioSource). All compounds were tested at 8 concentrations (30, 10, 3, 1, 0.3, 0.1, 0.03, and 0.01 μM), and data points were analyzed with Origin software and fitted using a logistic model for IC50 determination.
As described in the Examples below, and depicted in FIG. 1, an sAPPβ ELISA assay may comprise cells, for example, SY5Y cells, transfected with a BACE1 reporter construct, such as a GFP-tagged BACE1 (BACE-GFP), and a wild type APP reporter construct, such as a secreted alkaline phosphatase (SEAP)-tagged wild type APP (SEAP-APPwt). BACE1 cleavage of the reporter-tagged APP (e.g. SEAP-APPwt) may result in secretion into the media of SEAP-tagged sAPPβ, which may be collected and specifically captured using an sAPPβ cleavage site-specific antibody (e.g. stβwt). Following washing, a substrate may be used, for example, the fluorescent alkaline phosphatase substrate 4-methylumbelliferyl phosphate (4-MUP), to detect the captured SEAP-sAPPβ.
A cell-based modified ELISA assay for measuring sAPPβ, the secreted ectodomain of β-amyloid precursor protein (APP) following β-secretase (BACE1) cleavage, was used to identify a class of compounds that interfered with the first step of sAPPβ generation. This assay has been described in International Application PCT/US2007/015938 (Published as International Publication No. WO 08/008463), which is herein incorporated in its entirety for all purposes.
The SY5Y-BACEGFP-SEAPAPPwt cell based assay was developed to discover novel small molecule modulators of BACE1 activity. SY5Y cells were stably transfected with GFP-tagged BACE1 (BACE-GFP) and secreted alkaline phosphatase (SEAP)-tagged wildtype APP (SEAP-APPwt). BACE1 cleavage of SEAP-APPwt results in secretion into the media of SEAP-tagged sAPPβ, which is collected and specifically captured using an sAPP0 cleavage site-specific antibody (sβwt). After washing, the fluorescent alkaline phosphatase substrate 4-methylumbelliferyl phosphate (4-MUP) is used to detect the captured SEAP-sAPPβ (FIG. 1).
The 15 LDDN compounds selected based on their 3-point dose-response profile were tested at 12 concentrations (ranging from 0.1 nM to 30 μM) in the cell-based BACE1 assay. The assay was conducted in 96-well format to maximize the Z′ factor. Compounds were characterized in duplicate cell plates, each containing 12 doses of compound in triplicate. Cell viability was measured at 6 and 24 hours using Promega's Cell Titer-Glo kit according to the manufacturer's protocol. The dose-response curves for sAPPβ reduction were plotted using Origin software and fitted using a logistic model for IC50 determination.
(§2) 27 structural analogs of LDN-0057228 were synthesized and tested using the cell-based BACE1 assay in SY5Y-BACEGFP-SEAPAPPwt cells (FIG. 13). 4 analogs, in addition to the parent compound, were also assessed for Aβ40 lowering activity using a commercial Aβ kit (BioSource). Because LDN-0057228 resembles CNS monoamine transporter inhibitors, this analog series was given the designation “CNS.” LDN-0057228 gave an unexpectedly low potency (IC50˜20 μM for both sAPPβ and Aβ40 reduction) compared to the ˜7 μM potency obtained using the same compound in FIG. 8.

Assay [2] relates to Aβ40 in SY5Y-BACEGFP-SEAPAPPwt cells. As to the kind of experiment: Aβ40 ELISA (BioSource) in SY5Y-BACEGFP-SEAPAPPwt cells. The class given is cell-based. The conditions noted are these: SAR study, 8 concentrations (30-0.01 μM), SY5Y-BACEGFP-SEAPAPPwt cells. As for the experimental part: FIG. 11. 5 LDDN compounds reduce Aβ40 in SYSY-BACEGFP-SEAPAPPwt cells. sAPPβ and 24-hour cell viability was performed as described in Chapter 4.1. Aβ40 ELISA was performed using the Aβ40 ELISA kit (BioSource) according to the manufacturer's protocol. Cell culture media was collected after 6 hours of treatment with 4 concentrations (30, 10, 3, 0.3 μM) of compound and diluted 3:10 prior to loading onto the Aβ ELISA plate. The data points for sAPPβ and Aβ were roughly superimposed. Data points represent mean±s.d. of 3 determinations.
as §1
In other non-limiting embodiments, the effective amount of at least one compound of Formulas I-VII, and/or a compound depicted in FIG. 19, may be correlated with the compound's ability to reduce the level of Aβ40 in an in vitro assay that measures the level of Aβ40 produced in a cell line, for example, an SY5Y-BACEGFP-SEAPAPPwt cell line. In one non-limiting example, the level of Aβ40 expressed by the cell line may be measured through the use of an Aβ40 Elisa kit (Bio Source). In one embodiment, the assay comprises incubating the Aβ40 expressing cells with a compound of Formulas I-VII, and/or a compound depicted in FIG. 19, followed by assaying the concentration of Aβ40 in the cell media. In such an assay, a greater reduction of Aβ40 concentration in the cell media following incubation with a compound compared to a control cell line not contacted with the compound is correlative with the compound's therapeutic efficacy.
The 15 LDDN compounds were tested in SY5Y-BACEGFP-SEAPAPPwt cells for their ability to reduce Aβ40 using a commercial Aβ40 ELISA kit (BioSource). SY5Y-BACEGFP-SEAPAPPwt cells were grown to 100% confluence and incubated with 4 concentrations of each compound (30, 10, 3, 0.3 μM). Cell culture media was collected after 6 hours of compound incubation and diluted 3:10 in sample diluent supplied in the Aβ40 ELISA kit. Aβ ELISA was performed according to the manufacturer's protocol. […] LDN-0057228 and LDN-0069630 are small molecules with ample chemical space for modification, and are thus considered good candidates for medicinal chemistry.
as §2

As for `Fc1ccc(C(OCCN2CCC[C@H]2CNCCCc2ccccc2)c2ccc(F)cc2)cc1` [CNS-1], the IC50 (commonly the concentration at which inhibition is half-maximal) in assay [1] worked out at 10.5 µM. For `CNC[C@@H]1CCCN1CCOC(c1ccc(F)cc1)c1ccc(F)cc1` [CNS-3], the IC50 in assay [1] and in assay [2] was 11.5 µM each time. For the compound `COC(=O)NC[C@@H]1CCCN1CCOC(c1ccc(F)cc1)c1ccc(F)cc1` [CNS-4], the IC50 in assay [1] came to 23.3 µM. On the same count and under the same terms, the result for `CC(=O)NC[C@@H]1CCCN1CCOC(c1ccc(F)cc1)c1ccc(F)cc1` [CNS-5] reads 20.8 µM.

In the case of `NC[C@@H]1CCCN1CCOC(c1ccc(F)cc1)c1ccc(F)cc1` [CNS-6], the IC50 in assay [1] came out at 27.9 µM. Still for that read-out and setting: next, `Fc1ccc(C(OCCN2CCC[C@@H]2CNCCCc2ccccc2)c2ccc(F)cc2)cc1` [CNS-8]: 5.7 µM; `O=C(CCc1ccccc1)NC[C@H]1CCCN1CCOC(c1ccc(F)cc1)c1ccc(F)cc1` [CNS-9]: 20.4 µM.

With `NC[C@H]1CCCN1CCOC(c1ccc(F)cc1)c1ccc(F)cc1` [CNS-10], the IC50 in assay [1] worked out at 38.3 µM. `NC(=O)[C@H]1CCCN1CCOC(c1ccc(F)cc1)c1ccc(F)cc1` [CNS-11]: the “IC50(sAPPβ)” value in assay [1] is “inactive”. For `NC[C@@H]1CCCCN1CCOC(c1ccc(F)cc1)c1ccc(F)cc1` [CNS-12], the half-maximal inhibitory concentration (IC50) in assay [1] is over 50 µM.

Regarding `Fc1ccc(C(OCCN2CCCC[C@H]2CNCCCc2ccccc2)c2ccc(F)cc2)cc1` [CNS-13], in assay [1], the IC50 is 9 µM.

As to `O=C(CCc1ccccc1)NC[C@@H]1CCCCN1CCOC(c1ccc(F)cc1)c1ccc(F)cc1` [CNS-14], in assay [1], the IC50 amounted to 14 µM. For the compound `NC(=O)[C@@H]1CCCCN1CCOC(c1ccc(F)cc1)c1ccc(F)cc1` [CNS-15], the “IC50(sAPPβ)” value in assay [1] is “inactive”. On the same count and under the same terms, next, `NC(=O)[C@@H]1CCCN1CCOC(c1ccc(F)cc1)c1ccc(F)cc1` [CNS-16]: “inactive”. On to `NC(=O)[C@@H]1CCN1CCOC(c1ccc(F)cc1)c1ccc(F)cc1` [CNS-17], for which the “IC50(sAPPβ)” value in assay [1] was “inactive”.

In the case of `NC[C@@H]1CCN1CCOC(c1ccc(F)cc1)c1ccc(F)cc1` [CNS-18], the IC50 in assay [1] was over 50 µM. For `O=C(CCc1ccccc1)NC[C@@H]1CCN1CCOC(c1ccc(F)cc1)c1ccc(F)cc1` [CNS-19], the “IC50(sAPPβ)” value in assay [1] is “inactive”. On the same count and under the same terms, next, `Fc1ccc(C(OCCN2CC[C@H]2CNCCCc2ccccc2)c2ccc(F)cc2)cc1` [CNS-20]: “inactive”.

As for `O=C(CCc1ccccc1)NCCNCCOC(c1ccc(F)cc1)c1ccc(F)cc1` [CNS-21], in assay [1], the “IC50(sAPPβ)” value is “inactive”. The same measure, in the same setting: next, `Fc1ccc(C(OCCNCCNCCCc2ccccc2)c2ccc(F)cc2)cc1` [CNS-22]: “inactive”. Same read-out and setting: the result for `O=C(CCc1ccccc1)NCCN(CCOC(c1ccc(F)cc1)c1ccc(F)cc1)CCOC(c1ccc(F)cc1)c1ccc(F)cc1` [CNS-23] reads “inactive”; that for `NC(=O)[C@@H]1CCCN1C(c1ccc(F)cc1)c1ccc(F)cc1` [CNS-24], “inactive”. Regarding `NC[C@@H]1CCCN1C(c1ccc(F)cc1)c1ccc(F)cc1` [CNS-25], the IC50 in assay [1] turned out to be 31.4 µM. Same read-out and setting: next, `O=C(CCc1ccccc1)NC[C@@H]1CCCN1C(c1ccc(F)cc1)c1ccc(F)cc1` [CNS-26]: 32.1 µM; `Fc1ccc(C(c2ccc(F)cc2)N2CCC[C@H]2CNCCCc2ccccc2)cc1` [CNS-27]: 10.2 µM.

Turning to `Fc1ccc(C(OCCN2CCN(CCCc3ccccc3)CC2)c2ccc(F)cc2)cc1` [GBR 12909, reference compound], the figures for the IC50 in assay [1] and in assay [2] were 34.6 µM and 14.5 µM, respectively. On to BACE inhibitor IV [reference compound], for which the “suppression of sAPPβ generation” value in assay [1] (10 μM, positive control, 384-well LDDN screen, on average) is listed as over 95%.
